Assays:
Arabidopsis first leaves = assay: Abaxial epidermal cell number of first leaves of plants grown on HU; type: in vivo, Arabidopsis thaliana; details: for reduction in epidermal cell number: grown 3 weeks on 1 mM HU, first leaves
Procedure: The smr5 (SALK_100918) and smr7 (SALK_128496) alleles were acquired from the Arabidopsis Biological Research Center. The atm-1, atr-2 and sog1-1 mutants have been described previously (Garcia et al., 2003; Preuss and Britt, 2003; Culligan et al., 2004; Yoshiyama et al., 2009). Unless stated otherwise, plants of Arabidopsis thaliana (L.) Heyhn (ecotype Columbia), were grown under long-day conditions (16 hours of light, 8 hours of darkness) at 22° C. on half-strength Murashige and Skoog (MS) germination medium (Murashige and Skoog, 1962). Arabidopsis plants were treated with HU as described by Cools et al. (2011). For bleomycin treatments, five-day-old seedlings were transferred into liquid MS medium supplemented with 0.3 μg/mL bleomycin. For γ-irradiation treatments, five-day-old in vitro-grown plantlets were irradiated with γ-rays at a dose of 20 Gy. For light treatments, one-week-old seedlings were transferred to continuous high-light conditions (growth rooms kept at 22° C. with 24-hour day/0-hour night cycles and a light intensity of 300-400 μmol m^−2 s^−1) for 2 days, and subsequently retransferred to low-light conditions. The first leaf pair was harvested and incubated in 100% ethanol for epidermis cell drawing as described by De Veylder et al. (2001).
For leaf measurements, first leaves were harvested at 21 days after sowing on control medium, medium supplemented with 1 mM hydroxyurea or 0.3 μg/mL bleomycin. […] The total (blade) area was determined from images digitized directly with a digital camera (Olympus BX51 microscope) mounted on a binocular (Stemi SV 11; Zeiss). From scanned drawing-tube images of the outlines of at least 30 cells of the abaxial epidermis located between 25% to 75% of the distance between the tip and the base of the leaf, halfway between the midrib and the leaf margin, the following parameters were determined: total area of all cells in the drawing and total numbers of pavement and guard cells, from which the average cell area was calculated. […] For confocal microscopy, root meristems were analyzed 2 days after transfer using a Zeiss LSM 510 Laser Scanning Microscope and the LSM Browser version 4.2 software (Zeiss). […] GFP fluorescence was detected with the 488-nm line of an Argon laser. GFP and PI were detected simultaneously by combining the settings indicated above in the sequential scanning facility of the microscope. Acquired images were quantitatively analyzed with the ImageJ v1.45s software (on the World Wide Web at rsbweb.nih.gov/ij/) and Cell-o-Tape plug-ins (French et al., 2012). Chlorophyll a fluorescence parameters were measured using the IMAGING PAM M-Series Chlorofyll Fluorescence (Walz) and associated software. […]

catalase = assay: Catalase assay (H2O2 breakdown by leaf protein extract); type: biochemical, Arabidopsis thaliana; details: extracts of control plants germinated on 1 mM HU
Procedure: Plants were germinated on either control medium, medium with 1 mM HU or 6 μM 3-AT. Leaf tissue of 10 plants was ground in 200 μL extraction buffer (60 mM Tris (pH 6.9), 1 mM phenylmethylsulfonylfluoride, 10 mM DTT) on ice. The homogenate was centrifuged at 13,000 g for 15 minutes at 4° C. A total of 45 μg protein extract was mixed with potassium phosphate buffer (50 mM, pH 7.0) (Vandenabeele et al., 2004). After addition of 11.4 μL H2O2 (7.5%), the absorbance of the sample at 240 nm after 0 and 60 seconds was measured to determine catalase activity by H2O2 breakdown (Beers and Sizer, 1952; Vandenabeele et al., 2004).

SIM/SMR promoters = assay: SIM/SMR promoter:GUS transcriptional reporter lines; type: in vivo, Arabidopsis thaliana
Excerpt: SIM/SMR promoter sequences were amplified from genomic DNA by PCR using the primers described in Table 5. The product fragments were created with the Pfu DNA Polymerase Kit (Promega, Catalog #M7745), and were cloned into a pDONR P4-Plr entry vector by BP recombination cloning and subsequently transferred into the pMK7S*NFml4GW,0 destination vector by LR cloning, resulting in a transcriptional fusion between the promoter of the SMR genes and the nlsGFP-GUS fusion gene (Karimi et al., 2007). For the overexpression constructs, the SMR coding regions were amplified using primers described in Table 5, and cloned into the pDONR221 vector by BP recombination cloning and subsequently transferred into the pK2GW7 destination vector (Kamimi et al., 2002) by LR cloning. All constructs were transferred into the Agrobacterium tumefaciens C58C1RifR strain harboring the pMP90 plasmid. The obtained Agrobacterium strains were used to generate stably transformed Arabidopsis lines with the floral dip transformation method (Clough and Bent, 1998). Transgenic plants were obtained on kanamycin-containing medium and later transferred to soil for optimal seed production.
Complete seedlings or tissue cuttings were stained in multiwell plates (Falcon 3043; Becton Dickinson). GUS assays were performed as described by Beeckman and Engler (1994). Samples mounted in lactic acid were observed and photographed with a stereomicroscope (Olympus BX51 microscope) or with a differential interference contrast (DIC) microscope (Leica).
To confirm involvement of SIM/SMR genes in the genotoxic stress response, transcriptional reporter lines containing the putative upstream promoter sequences were constructed for all. After selection of representative reporter lines, one-week-old seedlings were transferred to control medium, or medium supplemented with HU (resulting into stalled replication forks) or bleomycin (causing DSBs).

ZmSMRg and ZmSMRh = assay: qRT-PCR of maize SMR genes after HU treatment; type: in vivo; details: root tips and leaves

H2O2 decomposition rate of plant extracts (catalase): reduced H2O2 decomposition rate
Structure (SMILES): NC(=O)NO [HU, hydroxyurea]
reduction in leaf size and cell number (Arabidopsis first leaves; SMR5^KO SMR7^KO double mutant, 1 mM HU, compared with single knockouts): even less
reduction in epidermal cell number (Arabidopsis first leaves; SMR5^KO plants): 29%
reduction in epidermal cell number (Arabidopsis first leaves; SMR7^KO plants): 30%
reduction in epidermal cell number (Arabidopsis first leaves; control plants (Col-0)): 47%
transcriptional induction of SMR4, SMR5 and SMR7 reporters in the root meristem (SIM/SMR promoters; one-week-old seedlings, 1 mM HU, GUS assay 24 hours after transfer): strong transcriptional induction
induction of SMR5 and SMR7 GUS reporters in the proliferating leaf (SIM/SMR promoters; treated for 24 hours): induced
transcriptional induction of maize SMR genes ZmSMRg and ZmSMRh (ZmSMRg and ZmSMRh): strong up-regulation
